Assay results taken from patent US11802120B2, “Fused cyclic urea derivatives as CRHR2 antagonist” (RaQualia Pharma Inc., priority 2018, dated 2023).

Biological target: T1, human CRHR2-alpha (Homo sapiens, UniProt Q13324)
T1 sequence (Q13324 1-411): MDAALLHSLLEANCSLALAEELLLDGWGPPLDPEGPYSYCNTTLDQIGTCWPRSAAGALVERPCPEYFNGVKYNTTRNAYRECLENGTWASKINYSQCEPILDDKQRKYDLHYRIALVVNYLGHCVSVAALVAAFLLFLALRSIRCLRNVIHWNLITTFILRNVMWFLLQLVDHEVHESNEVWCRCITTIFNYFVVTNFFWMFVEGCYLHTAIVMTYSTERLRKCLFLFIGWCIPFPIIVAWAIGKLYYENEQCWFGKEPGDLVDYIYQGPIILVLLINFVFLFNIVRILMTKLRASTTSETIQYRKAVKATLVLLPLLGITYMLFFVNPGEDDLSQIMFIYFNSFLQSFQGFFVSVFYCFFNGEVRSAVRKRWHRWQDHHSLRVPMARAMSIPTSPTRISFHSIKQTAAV
Test: cAMP functional assay for human CRHR2 (LANCE Ultra cAMP, TR-FRET)
Assay type: cell-based
Details: CHO-K1 cells expressing human CRHR2-alpha, agonist human urocortin2 at EC80, cAMP; read-out: IC50 against CRHR2
How it was run: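 CHO-K1 cells stably expressing each receptor, serum-starved and cryopreserved, were preincubated with compound 30 min at 25° C in HBSS buffer with 0.5 mM IBMX, pH 7.4, then stimulated 30 min with EC80 agonist (urocortin2 for CRHR2, CRF for CRHR1). cAMP read by TR-FRET; IC50 from percent-inhibition curves.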

Row | Structure (SMILES) | IC50
1 | O=C(N[C@H]1CC[C@H](Cn2c(=O)n(-c3ccccc3Cl)c3cnccc32)CC1)c1cc(Cl)cnc1C(F)F [Example 721, 5-chloro-N-((1r,4r)-4-((3-(2-chlorophenyl)-2-oxo-2,3-dihydro-1H-imidazo[4,5-c]pyridin-1-yl)methyl)cyclo-hexyl)-2-(difluoromethyl) nicotinamide] | < 300 nM
2 | COc1ccc(-n2c(=O)n(C[C@H]3CC[C@H](NC(=O)c4cc(Cl)cnc4C(F)F)CC3)c3ncccc32)cc1F [Example 722, 5-chloro-2-(difluoromethyl)-N-((1r,4r)-4-((1-(3-fluoro-4-methoxyphenyl)-2-oxo-1H-imidazo[4,5-b]pyridin-3(2H)-yl)methyl)cyclohexyl) nicotinamide] | < 300 nM
3 | COc1ccc(-n2c(=O)n(C[C@H]3CC[C@H](NC(=O)c4cc(Cl)cnc4C(F)F)CC3)c3cnccc32)cc1F [Example 724, 5-chloro-2-(difluoromethyl)-N-((1r,4r)-4-((1-(3-fluoro-4-methoxyphenyl)-2-oxo-1H-imidazo[4,5-c]pyridin-3(2H)-yl)methyl)cyclohexyl) nicotinamide] | < 300 nM
4 | COc1ccc(F)c(-n2c(=O)n(C[C@H]3CC[C@H](NC(=O)c4cc(Cl)cnc4C(F)F)CC3)c3cccnc32)c1 [Example 725, 5-chloro-2-(difluoromethyl)-N-((1r,4r)-4-((3-(2-fluoro-5-methoxyphenyl)-2-oxo-2,3-dihydro-1H-imidazo[4,5-b]pyridin-1-yl)methyl)cyclo-hexyl)nicotinamide] | < 300 nM
5 | COc1ccc(F)c(-n2c(=O)n(C[C@H]3CC[C@H](NC(=O)c4cc(Cl)cnc4C(F)F)CC3)c3cnccc32)c1 [Example 726, 5-chloro-2-(difluoromethyl)-N-((1r,4r)-4-((1-(2-fluoro-5-methoxyphenyl)-2-oxo-1H-imidazo[4,5-c]pyridin-3(2H)-yl)methyl)cyclohexyl) nicotinamide] | < 300 nM
6 | Cn1ccc2cc(-n3c(=O)n(C[C@H]4CC[C@H](NC(=O)c5cc(Cl)cnc5C(F)F)CC4)c4cccnc43)cnc21 [Example 730, 5-chloro-2-(difluoromethyl)-N-((1r,4r)-4-((3-(1-methyl-1H-pyrrolo[2,3-b]pyridin-5-yl)-2-oxo-2,3-dihydro-1H-imidazo[4,5-b]pyridin-1-yl)methyl)cyclohexyl)nicotinamide] | < 300 nM
7 | Cc1cn(CCO)c2ncc(-n3c(=O)n(C[C@H]4CC[C@H](NC(=O)c5cc(Cl)cnc5C(F)F)CC4)c4ccccc43)cc12 [Example 731, 5-chloro-2-(difluoromethyl)-N-((1r,4r)-4-((3-(1-(2-hydroxyethyl)-3-methyl-1H-pyrrolo[2,3-b]pyridin-5-yl)-2-oxo-2,3-dihydro-1H-benzo[d]imidazol-1-yl)methyl)cyclohexyl)nicotinamide] | < 300 nM
8 | Cn1c(CO)cc2cc(-n3c(=O)n(C[C@H]4CC[C@H](NC(=O)c5cc(Cl)cnc5C(F)F)CC4)c4ccccc43)cnc21 [Example 732, 5-chloro-2-(difluoromethyl)-N-((1r,4r)-4-((3-(2-(hydroxymethyl)-1-methyl-1H-pyrrolo[2,3-b]pyridin-5-yl)-2-oxo-2,3-dihydro-1H-benzo[d]imidazol-1-yl)methyl)cyclohexyl)nicotinamide] | < 300 nM
9 | O=C(N[C@H]1CC[C@H](Cn2c(=O)n(-c3ccc(-c4ncc[nH]4)nc3)c3ccccc32)CC1)c1cc(Cl)cnc1C(F)F [Example 733, N-((1r,4r)-4-((3-(6-(1H-imidazol-2-yl)pyridin-3-yl)-2-oxo-2,3-dihydro-1H-benzo[d]imidazol-1-yl)methyl)cyclohexyl)-5-chloro-2-(difluoromethyl)nicotinamide] | < 300 nM
10 | CN1CCN(c2ccc(-n3c(=O)n(C[C@H]4CC[C@H](NC(=O)c5cc(Cl)cnc5C(F)F)CC4)c4ccccc43)nc2)C1=O [Example 735, 5-chloro-2-(difluoromethyl)-N-((1r,4r)-4-((3-(5-(3-methyl-2-oxoimidazolidin-1-yl)pyridin-2-yl)-2-oxo-2,3-dihydro-1H-benzo[d]imidazol-1-yl)methyl)cyclohexyl) nicotinamide] | < 300 nM
11 | O=C(N[C@H]1CC[C@H](Cn2c(=O)n(-c3ccc(N4CCNC4=O)nc3)c3ccc(F)cc32)CC1)c1cc(Cl)cnc1C(F)F [Example 736, 5-chloro-2-(difluoromethyl)-N-((1r,4r)-4-((6-fluoro-2-oxo-3-(6-(2-oxoimidazolidin-1-yl)pyridin-3-yl)-2,3-dihydro-1H-benzo[d]imidazol-1-yl)methyl)cyclohexyl) nicotinamide] | < 300 nM
12 | Cn1ccc(-c2ccc(-n3c(=O)n(C[C@H]4CC[C@H](NC(=O)c5cc(Cl)cnc5C(F)F)CC4)c4ccccc43)cn2)n1 [Example 737, 5-chloro-2-(difluoromethyl)-N-((1r,4r)-4-((3-(6-(1-methyl-1H-pyrazol-3-yl)pyridin-3-yl)-2-oxo-2,3-dihydro-1H-benzo[d]imidazol-1-yl)methyl)cyclohexyl)nicotinamide] | < 300 nM
13 | O=C(N[C@H]1CC[C@H](Cn2c(=O)n(-c3ccc(-c4ncc[nH]4)cc3)c3ccccc32)CC1)c1cc(Cl)cnc1C(F)F [Example 743, N-((1r,4r)-4-((3-(4-(1H-imidazol-2-yl)phenyl)-2-oxo-2,3-dihydro-1H-benzo[d]imidazol-1-yl)methyl)cyclohexyl)-5-chloro-2-(difluoromethyl)nicotinamide] | < 300 nM
14 | O=C(N[C@H]1CC[C@H](Cn2c(=O)n(-c3cccc(-c4nnco4)c3)c3ccccc32)CC1)c1cc(Cl)cnc1C(F)F [Example 748, N-((1r,4r)-4-((3-(3-(1,3,4-oxadiazol-2-yl)phenyl)-2-oxo-2,3-dihydro-1H-benzo [d]imidazol-1-yl)methyl)cyclohexyl)-5-chloro-2-(difluoromethyl)nicotinamide] | < 300 nM
15 | O=C(N[C@H]1CC[C@H](Cn2c(=O)n(-c3ccc(N4CCCC4=O)cn3)c3ccccc32)CC1)c1cc(Cl)cnc1C(F)F [Example 767, 5-chloro-2-(difluoromethyl)-N-((1r,4r)-4-((2-oxo-3-(5-(2-oxopyrrolidin-1-yl)pyridin-2-yl)-2,3-dihydro-1H-benzo [d]imidazol-1-yl)methyl)cyclohexyl)nicotinamide] | < 300 nM
16 | Cc1ncc(Cl)cc1C(=O)N[C@H]1CC[C@H](Cn2c(=O)n(-c3cccc(N4CCNC4=O)n3)c3ccccc32)CC1 [Example 772, 5-chloro-2-methyl-N-((1r,4r)-4-((2-oxo-3-(6-(2-oxo-imidazolidin-1-yl)pyridin-2-yl)-2,3-dihydro-1H-benzo [d]imidazol-1-yl)methyl)cyclohexyl)nicotinamide] | < 300 nM
17 | O=C(N[C@H]1CC[C@H](Cn2c(=O)n(-c3cccc(N4CCNC4=O)n3)c3ccccc32)CC1)c1cc(Cl)cnc1C(F)F [Example 773, 5-chloro-2-(difluoromethyl)-N-((1r,4r)-4-((2-oxo-3-(6-(2-oxoimidazolidin-1-yl)pyridin-2-yl)-2,3-dihydro-1H-benzo [d]imidazol-1-yl)methyl)cyclo-hexyl)nicotinamide] | < 300 nM
18 | CN1CCN(c2cccc(-n3c(=O)n(C[C@H]4CC[C@H](NC(=O)c5cc(Cl)cnc5C(F)F)CC4)c4ccccc43)n2)C1=O [Example 774, 5-chloro-2-(difluoromethyl)-N-((1r,4r)-4-((3-(6-(3-methyl-2-oxoimidazolidin-1-yl)pyridin-2-yl)-2-oxo-2,3-dihydro-1H-benzo[d]imidazol-1-yl)methyl)cyclohexyl) nicotinamide] | < 300 nM
